In US20120302618A1, “USE OF BENZYDAMINE IN THE TREATMENT OF P40-DEPENDENT DISEASES” (AZIENDE CHIM. RIUN. ANG. FRANC. A.C.R.A.F. S.p.A., priority 2009, published 2012):
Values joined by “and” are separate entries in the source; they are usually repeats but may differ in a detail not shown here. Equal values may be shown once.

Columns and labels:
TNF [1] = conditions: mice; cited from earlier work
p40 [2] = test: Inhibition of p40 mRNA expression by LPS-stimulated MonoMac6 cells (real-time PCR); type: cell-based, human; conditions: 75 μM, 1 h preincubation, LPS 100 ng/ml for 4 h
Experimental: The capacity of benzydamine to inhibit the expression of p40 by lipopolysaccharide (LPS)-stimulated MonoMac6 cells was evaluated. The cells were placed in 96-well plates at a concentration of 50 000 cells/well. The compound was tested at the concentration of 75 μM and incubated for 1 hour. The cells were then stimulated with LPS (100 ng/ml) for 4 hours. The total RNA was extracted from the cell pellet using the RNeasy mini kit (Qiagen), reverse-transcribed with the TaqMan Reverse transcription reagents synthesis kit (Applied Biosystems) and the cDNA obtained was used for the real-time PCR reaction. The amplification was obtained in 96-well plates using the ABI Prism 7000 sequence detection system (Applied Biosystems), by applying the following temperature profile: 50° C. for 2 minutes, 95° C. for 10 minutes and 45 cycles at 95° C. for 15 seconds and 60° C. for 1 minute. For the amplification, a set of primers and probe specific for human p40 was used (Applied Biosystems, RefSeq NM_002187.2). A set of primers and probe for β-actin was used in separate wells as an internal control of the samples for the purposes of normalization. Once the reaction had taken place, the fluorescence data were analysed using the ABI Prism 7000 SDS software, by calculating the threshold cycle (Ct) for each sample and subsequently performing a relative quantification via the ΔΔCt method.

p40 [3] = test: Inhibition of p40 protein production by anti-CD3 stimulated human PBMCs (Luminex); type: cell-based
Experimental: (§1) The capacity of the compound to inhibit the production of the protein p40 by anti-CD3 stimulated human PBMCs (peripheral blood mononuclear cells) was evaluated. The cells were placed in 96-well plates at a concentration of 2×10^5 cells/well. The compound was tested on a 6-point ½-log dose curve (in the range 0.3-100 μM) and incubated for 1 hour. The cells were then stimulated with anti-CD3 (4 μg/ml) for 48 hours. The amount of p40 produced was measured in the supernatants, suitably diluted with buffer, by using the Luminex 100 system.

TNF [4] = test: Inhibition of TNF production by anti-CD3 stimulated human PBMCs (Luminex); type: cell-based
Experimental: as §1, with “expression” for “production”, “TNF” for “p40”

[5] = 0 μM (so in the source), anti-CD3 4 μg/ml 48 h, human PBMCs
[6] = PBMC, 1 μM, anti-CD3 4 μg/ml 48 h, human PBMCs
[7] = PBMC, 3 μM, anti-CD3 4 μg/ml 48 h, human PBMCs
[8] = PBMC, 10 μM, anti-CD3 4 μg/ml 48 h, human PBMCs
[9] = PBMC, 30 μM, anti-CD3 4 μg/ml 48 h, human PBMCs
[10] = PBMC, 100 μM, anti-CD3 4 μg/ml 48 h, human PBMCs
[11] = PBMC, anti-CD3 stimulated human PBMCs, 48 h
[12] = dose curve 0.3-100 μM, human PBMCs

- IC50 (p40 [3]; [11]): 10.1 µM
- IC50 (TNF [4]; [11]): 43.1 µM
- IC50 for TNF relative to IC50 for p40 (TNF [4]; anti-CD3 stimulated human PBMCs): about 4 fold
Compound: CN(C)CCCOc1nn(Cc2ccccc2)c2ccccc12 [Benzydamine]
- dose required for a significant inhibiting effect on TNF production (TNF [1]): 20 mg/kg and 40 mg/kg
- % inhibition of LPS-induced p40 mRNA expression (p40 [2]): 80%
- % inhibition of p40 production (p40 [3]; [5]): 0%
- inhibition at 1 µM (p40 [3]; [6]): 23%
- inhibition at 3 µM (p40 [3]; [7]): 24%
- inhibition at 10 µM (p40 [3]; [8]): 44%
- inhibition at 30 µM (p40 [3]; [9]): 97%
- inhibition at 100 µM (p40 [3]; [10]): 99%
- inhibition of anti-CD3 induced p40 production, range over dose curve (p40 [3]; [12]): 23-99%
- % inhibition of TNF production (TNF [4]; [5]): 7%
- inhibition at 1 µM (TNF [4]; [6]): 8%
- inhibition at 3 µM (TNF [4]; [7]): 12%
- inhibition at 10 µM (TNF [4]; [8]): 22%
- inhibition at 30 µM (TNF [4]; [9]): 44%
- inhibition at 100 µM (TNF [4]; [10]): 70%
- inhibition of anti-CD3 induced TNF production, range over dose curve (TNF [4]; [12]): 8-70%
